Assay results taken from patent US20090317477A1, “COMBINATION OF DEHYDROEPIANDROSTERONE OR DEHYDROEPIANDROSTERONE-SULFATE WITH A GLUCOCORTICOSTEROID FOR TREATMENT OF ASTHMA, CHRONIC OBSTRUCTIVE PULMONARY DISEASE OR ALLERGIC RHINITIS” (priority 2004, published 2009).
“And” between values parts separate entries of the source, which are not always exact repeats. Equal values may be shown once.

What was measured:
Intracellular adenosine = format: in vivo, Fischer 344 rats; details: rat
HT-29 SF cells [1] = assay: DHEA effect on cell growth
Experimental: Cell cultures, HT-29 SF cells, which represent a subline of HY-29 cells (ATCC, Rockville, Md.) and are adapted for growth in completely defined serum-free PC-1 medium (Ventrex, Portland, Me.), are obtained. Stock cultures are maintained in this medium at 37° C. (in a humidified atmosphere containing 5% CO2).

HT-29 SF cells [2] = assay: DHEA effect on cell cycle (flow cytometry); format: cell-based, human
Experimental: Cells are plated at 10^5/60-mm dish in duplicate. […] Cultures are trypsinized following […] and fixed and stained using a modification of a procedure of Bauer et al., Cancer Res. 46, 3173-3178 (1986). Briefly, cells are collected by centrifugation and resuspended in cold phosphate-buffered saline. Cells are fixed in 70% ethanol, washed, and resuspended in phosphate-buffered saline.
After 24, 48, and 72 hours, cells are harvested, fixed in ethanol, and stained with propidium iodide, and the DNA content/cell is determined by flow cytometric analysis. The percentage of cells in G1, S, and G2M phases is calculated using the Cellfit cell cycle analysis program. S phase is marked by a quadrangle for clarity. Representative histograms from duplicate determinations are shown. The experiment is repeated three times.

HT-29 SF cells [3] = assay: Reversal of DHEA effect on cell cycle; format: cell-based, human; details: 25 μM DHEA; increasing exposure time
[4] = Solid-state stability at 50° C. with and without lactose (DHEA formed, HPLC); format: physicochemical; details: dihydrate
Description: These conditions are used to stress the formulation in order to predict its long-term stability results. […] The primary degradant is DHEA. […] The materials on accelerated storage become more cohesive with time as evidenced by clumping during sample weighing for chemical analysis. […] This is a considerable disadvantage since lactose is the most commonly used inhalation excipient for dry powder formulations. Continuing with the virtually anhydrous form would mean limiting formulations to neat powder or undertaking more comprehensive safety studies to use a novel excipient.

[5] = system: LPS-induced secretion of TNFα from PBMC; assay: LPS-induced secretion of TNFα from PBMC; format: cell-based, human
Experimental: Thereafter, 1 μg/ml LPS was added to induce the cytokine secretion and the mixture was incubated for 24 h at 37° C. For basal control measurements, LPS was omitted from the incubation medium. Following incubation, the samples were centrifuged at 250× g for 5 min at 4° C. and the supernatants were collected.
The amount of secreted TNF-α present in the supernatant was quantified using an EIA detection kit (R&D systems). The photometric measurements were made with a microplate reader (Ultra, Tecan).
The results are expressed as a percent inhibition of the control secretion induced by LPS in Table 16.

[6] = system: Glucocorticoid, Testosterone, Estrogen ERα, Estrogen ERβ, Progesterone, Vitamin D3 receptors; assay: Radioligand binding assays, steroid receptor panel (statements in words)
[7] = Nebulizer studies (Pari ProNeb Ultra, LC Plus); format: physicochemical; details: 0.12% NaCl
Experimental: The nebulizer is filled with 5 mL of solution and nebulization is continued until the output became visually insignificant (4½ to 5 min.). Nebulizer solutions are tested using a California Instruments AS-6 6-stage impactor with a USP throat. The impactor is run at 30 L/min for 8 s to collect a sample following one minute of nebulization time. At all other times during the experiment, the aerosol is drawn through the by-pass collector at approximately 33 L/min. The collection apparatus, nebulizer, and impactor are rinsed with mobile phase and assayed by HPLC. […] This volume is selected as the practical upper limit for use in a clinical study.

[8] = Fine particle fraction, single-dose Acu-Breathe device into Andersen impactor; format: physicochemical; details: aerosol of dihydrate/lactose blend; Test 2; 60 L/min
Experimental: The single-dose Acu-Breathe device is used for evaluating DHEA-S-dihydrate. Approximately 10 mg of neat DHEA-S-dihydrate powder is filled and sealed into foil blisters. These blisters are actuated into the Andersen 8-stage cascade impactor at flow rates ranging from 30 to 75 L/min with a glass twin-impinger throat. Stages 1-5 of the Andersen impactor are rinsed together to obtain an estimate of the fine particle fraction. Pooling the drug collected from multiple stages into one assay make the method much more sensitive. […] This unique feature of DHEA-S-dihydrate has not been reported in any previous literature. […] Using a carrier with a larger particle size typically improves the aerosol properties of micronized drug substances.
Approximately 25 mg of this powder is filled and sealed in foil blisters and aerosolized using the single-dose device at 60 L/min. The aerosol results for this preliminary powder blend are satisfactory for a respiratory drug delivery system. […] This diameter is smaller than the median diameter measured for micronized DHEA-S-dihydrate by laser diffraction. Irregularly shaped particles can behave aerodynamically as smaller particles since their longest dimension tends to align with the air flow field. Therefore, it is common to see a difference between the two methods. […]

Glucocorticoid receptor = biological target: T1, Glucocorticoid receptor (Homo sapiens, UniProt P04150); assay: Radioligand binding assay, Glucocorticoid; details: 100 μM
T1 sequence (P04150 1-777): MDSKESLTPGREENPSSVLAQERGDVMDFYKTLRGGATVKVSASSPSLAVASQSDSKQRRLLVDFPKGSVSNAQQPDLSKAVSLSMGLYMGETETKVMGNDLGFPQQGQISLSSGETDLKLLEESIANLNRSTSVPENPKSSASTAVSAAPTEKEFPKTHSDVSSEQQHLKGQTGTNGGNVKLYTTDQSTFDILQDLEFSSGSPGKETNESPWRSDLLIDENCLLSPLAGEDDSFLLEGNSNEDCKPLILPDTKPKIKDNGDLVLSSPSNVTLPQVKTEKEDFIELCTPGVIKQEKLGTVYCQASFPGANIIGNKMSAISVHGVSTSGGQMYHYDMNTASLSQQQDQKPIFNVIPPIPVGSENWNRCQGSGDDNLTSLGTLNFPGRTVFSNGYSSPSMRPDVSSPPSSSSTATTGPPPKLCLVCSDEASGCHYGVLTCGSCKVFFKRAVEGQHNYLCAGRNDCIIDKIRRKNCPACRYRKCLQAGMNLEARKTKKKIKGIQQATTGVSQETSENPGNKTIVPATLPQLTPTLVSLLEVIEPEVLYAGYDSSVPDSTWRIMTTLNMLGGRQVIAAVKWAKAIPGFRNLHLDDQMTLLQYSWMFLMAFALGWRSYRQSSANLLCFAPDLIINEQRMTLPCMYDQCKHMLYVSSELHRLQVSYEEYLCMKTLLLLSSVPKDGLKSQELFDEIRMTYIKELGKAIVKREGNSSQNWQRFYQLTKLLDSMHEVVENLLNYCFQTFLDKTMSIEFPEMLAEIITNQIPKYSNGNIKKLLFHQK

Solubility of DHEA-S = format: physicochemical; details: 20 mM Na^+; Ksp of 1316 mM^2 (15° C.)
Description: Inhalation of pure water can produce a cough stimulus. […] The temperature effect is weaker at high NaCl concentrations.

[9] = Homo sapiens, PBMC, read-out: percent inhibition of LPS-induced TNFα secretion

Nc1nc(=O)c2c([nH]1)NCC(CNc1ccc(C(=O)N[C@@H](CCC(=O)O)C(=O)O)cc1)N2C=O (mixture of isomers) [Folinic Acid]
Intracellular adenosine, Brain (Intracellular adenosine; in vivo): 0.72 ± 0.09 | effect of coadministration of folinic acid on steroid-mediated adenosine depletion (Intracellular adenosine; with DHEA or methyltestosterone): completely abrogate steroid-mediated adenosine depletion

C[C@]12CC[C@H](O)CC1=CC[C@@H]1[C@@H]2CC[C@]2(C)C(=O)CC[C@@H]12 [DHEA, 3β-hydroxyandrost-5-en-17-one]
exposure time after which cell number is reduced compared to controls (HT-29 SF cells [1]; 12.5 μM DHEA): 72 h | exposure time after which cell number is reduced compared to controls (HT-29 SF cells [1]; 25 μM DHEA): 48 h | exposure time after which cell number is reduced compared to controls (HT-29 SF cells [1]; 50 μM DHEA): 48 h | exposure time after which cell number is reduced compared to controls (HT-29 SF cells [1]; 200 μM DHEA): 24 h | inhibition of growth (HT-29 SF cells [1]; 12.5-200 μM, 24-72 hours): time- and dose-dependent inhibition of growth | cell cycle distribution (HT-29 SF cells [2]; 200 μM DHEA): more rapid increase in the percentage of cells in G1 and a decreased proportion of cells in S phase after 24 hours | cell cycle effect (HT-29 SF cells [2]; 25, 50, 200 μM, 24-72 hours): G1 block in HT-29 SF cells in a time-and dose-dependent manner | effect on adenosine across organs (Intracellular adenosine; daily for two weeks): multi-organ depletion of adenosine | effect on proportion of cells in S phase (HT-29 SF cells [3]): progressively reduced the proportion of cells in S phase

CC12CCC3C(CC=C4CC(OS(=O)(=O)[O-])CCC43C)C1CCC2=O.[Na+] (centres unmarked) [DHEA-S dihydrate]
Percent DHEA formed ([4]; 50° C., 1 week): 0.216% | Percent DHEA formed ([4]; 50° C., 3 weeks): 0.317% | Percent DHEA formed ([4]; 50° C., 4 weeks): 0.374% | Percent DHEA formed ([4]; Control, sealed, 25° C., 4 weeks): 0.218% | Percent DHEA formed ([4]; Control, sealed, 25° C., first column (Time=0)): 0.213%

C[C@]12CC[C@H](OS(=O)(=O)[O-])CC1=CC[C@@H]1[C@@H]2CC[C@]2(C)C(=O)CC[C@@H]12.[Na+] [DHEA-S, sodium dehydroepiandrostenone sulfate]
percent inhibition of LPS-induced TNFα secretion ([5]; DHEAS 30 μM alone): −2% | percent inhibition of LPS-induced TNFα secretion ([5]; DHEAS 100 μM alone): 32% | binding to the steroid receptors [6]: lack of effect on ligand binding on the other four receptors | highest solution concentration for a clinical trial formulation (no precipitate during nebulization) [7]: approximately 7.5 mg/mL | median diameter of aerosol by cascade impaction [8]: ~2.5 μm | binding to the glucocorticosteroid receptor (Glucocorticoid receptor): does not bind to the glucocorticosteroid receptor | calculated solubility of DHEA-S^− (Solubility of DHEA-S): 27.5 mM and 10.7 mg/mL

C[C@@H]1C[C@H]2[C@@H]3CCC4=CC(=O)C=C[C@]4(C)[C@@]3(F)[C@@H](O)C[C@]2(C)[C@@]1(O)C(=O)CO [Dexamethasone]
inhibition at 0.001 µM [5, 9]: -3% | inhibition at 0.01 µM [5, 9]: 4% | inhibition at 0.1 µM [5, 9]: 36%
